Experimental data: US7192906B2, “Substituted pyrazole derivatives, production process thereof, and herbicide compositions containing the derivatives” (SDS Biotech K.K., priority 2001, dated 2007)

How the values were obtained:
Assay type in all cases: in vivo
Chenopodium album [1] = experiment: Test Example 1 upland field foliage treatment; details: Table 4, upland field foliage treatment, index 0-5
Description: (§1) A plastic pot of 130 cm^2 was filled with upland soil. Subsequently, weed seeds of Setaria viridis, Digitaria adscendens, Chenopodium album and Stellaria media, and crop seeds of soybean (Glycine max) and wheat (Triticum aestivum), were sowed and covered with soil of about 1 cm thickness. On the 14th day after the sowing, the wettable powder prepared in Formulation Example 1 was diluted with water such that the amount of the active ingredient became 1 kg per hectare, and then uniformly applied to the plant leaf surfaces. On the 21st day after the application, observation and evaluation were carried out according to the criteria described below.
(§2) Herbicidal activity was evaluated based on the following criteria.
(§3) • 5: herbicidal effect of not less than 90%, or phytotoxicity of 90% or more • 4: herbicidal effect of not less than 70% and less than 90%, or phytotoxicity of 70% or more and less than 90% • 3: herbicidal effect of not less than 50% and less than 70%, or phytotoxicity of 50% or more and less than 70% • 2: herbicidal effect of not less than 30% and less than 50%, or phytotoxicity of 30% or more and less than 50% • 1: herbicidal effect of not less than 10% and less than 30%, or phytotoxicity of 10% or more and less than 30% • 0: herbicidal effect of not less than 0% and less than 10%, or phytotoxicity of 0% or more and less than 10%

Digitaria adscendens [2] = experiment: Test Example 1 upland field foliage treatment; details: Table 4, upland field foliage treatment, index 0-5
Description: as §1, §2, §3

Setaria viridis [3] = experiment: Test Example 1 upland field foliage treatment; details: Table 4, upland field foliage treatment, index 0-5
Description: as §1, §2, §3

Stellaria media [4] = experiment: Test Example 1 upland field foliage treatment; details: Table 4, upland field foliage treatment, index 0-5
Description: as §1, §2, §3

soybean (Glycine max) [5] = experiment: Test Example 1 upland field foliage treatment, crop phytotoxicity; details: Table 4, upland field foliage treatment, index 0-5
Description: as §1, §2, §3

[6] = tested on: wheat (Triticum aestivum); experiment: as above; details: Table 4, upland field foliage treatment, index 0-5
Description: as §1, §2, §3

Chenopodium album [7] = experiment: Test Example 2 upland soil treatment; details: Table 5, upland soil treatment, index 0-5
Description: as §1, with “next” for “14th”, “soil surface.” for “plant leaf surfaces.”, “aforesaid criteria.” for “criteria described below.”
as §2, §3

Digitaria adscendens [8] = experiment: Test Example 2 upland soil treatment; details: Table 5, upland soil treatment, index 0-5
Description: as §1, with “next” for “14th”, “soil surface.” for “plant leaf surfaces.”, “aforesaid criteria.” for “criteria described below.”
as §2, §3

Setaria viridis [9] = experiment: Test Example 2 upland soil treatment; details: Table 5, upland soil treatment, index 0-5
Description: as §1, with “next” for “14th”, “soil surface.” for “plant leaf surfaces.”, “aforesaid criteria.” for “criteria described below.”
as §2, §3

Stellaria media [10] = experiment: Test Example 2 upland soil treatment; details: Table 5, upland soil treatment, index 0-5
Description: as §1, with “next” for “14th”, “soil surface.” for “plant leaf surfaces.”, “aforesaid criteria.” for “criteria described below.”
as §2, §3

soybean (Glycine max) [11] = experiment: Test Example 2 upland soil treatment, crop phytotoxicity; details: Table 5, upland soil treatment, index 0-5
Description: as §1, with “next” for “14th”, “soil surface.” for “plant leaf surfaces.”, “aforesaid criteria.” for “criteria described below.”
as §2, §3

[12] = tested on: wheat (Triticum aestivum); experiment: as above; details: Table 5, upland soil treatment, index 0-5
Description: as §1, with “next” for “14th”, “soil surface.” for “plant leaf surfaces.”, “aforesaid criteria.” for “criteria described below.”
as §2, §3

SMILES	Herbicidal activity CA: Chenopodium album (Chenopodium album [1])	Herbicidal activity DA: Digitaria adscendens (Digitaria adscendens [2])	Herbicidal activity SV: Setaria viridis (Setaria viridis [3])	Herbicidal activity SM: Stellaria media (Stellaria media [4])	Herbicidal activity (phytotoxicity) GM: Soybean (Glycine max) (soybean (Glycine max) [5])	Herbicidal activity (phytotoxicity) TA: Wheat (Triticum aestivum) [6]	Herbicidal activity CA: Chenopodium album (Chenopodium album [7])	Herbicidal activity DA: Digitaria adscendens (Digitaria adscendens [8])	Herbicidal activity SV: Setaria viridis (Setaria viridis [9])	Herbicidal activity SM: Stellaria media (Stellaria media [10])	Herbicidal activity (phytotoxicity) GM: Soybean (Glycine max) (soybean (Glycine max) [11])	Herbicidal activity (phytotoxicity) TA: Wheat (Triticum aestivum) [12]
CNC(=O)C(Cn1cc(C)c(-c2ccc(OCc3ccccc3)cc2)n1)=NOC [Compound 54]	4 (herbicidal effect of not less than 70% and less than 90%, or phytotoxicity of 70% or more and less than 90%)	5 (herbicidal effect of not less than 90%, or phytotoxicity of 90% or more)	4 (herbicidal effect of not less than 70% and less than 90%, or phytotoxicity of 70% or more and less than 90%)	4 (herbicidal effect of not less than 70% and less than 90%, or phytotoxicity of 70% or more and less than 90%)	0 (herbicidal effect of not less than 0% and less than 10%, or phytotoxicity of 0% or more and less than 10%)	0 (herbicidal effect of not less than 0% and less than 10%, or phytotoxicity of 0% or more and less than 10%)	5 (herbicidal effect of not less than 90%, or phytotoxicity of 90% or more)	4 (herbicidal effect of not less than 70% and less than 90%, or phytotoxicity of 70% or more and less than 90%)	3 (herbicidal effect of not less than 50% and less than 70%, or phytotoxicity of 50% or more and less than 70%)	5 (herbicidal effect of not less than 90%, or phytotoxicity of 90% or more)	0 (herbicidal effect of not less than 0% and less than 10%, or phytotoxicity of 0% or more and less than 10%)	0 (herbicidal effect of not less than 0% and less than 10%, or phytotoxicity of 0% or more and less than 10%)
CNC(=O)C(Cn1cc(C)c(-c2cccc(Cl)c2)n1)=NOC [Compound 46]	5 (herbicidal effect of not less than 90%, or phytotoxicity of 90% or more)	5 (herbicidal effect of not less than 90%, or phytotoxicity of 90% or more)	5 (herbicidal effect of not less than 90%, or phytotoxicity of 90% or more)	5 (herbicidal effect of not less than 90%, or phytotoxicity of 90% or more)	0 (herbicidal effect of not less than 0% and less than 10%, or phytotoxicity of 0% or more and less than 10%)	0 (herbicidal effect of not less than 0% and less than 10%, or phytotoxicity of 0% or more and less than 10%)	5 (herbicidal effect of not less than 90%, or phytotoxicity of 90% or more)	5 (herbicidal effect of not less than 90%, or phytotoxicity of 90% or more)	5 (herbicidal effect of not less than 90%, or phytotoxicity of 90% or more)	5 (herbicidal effect of not less than 90%, or phytotoxicity of 90% or more)	1 (herbicidal effect of not less than 10% and less than 30%, or phytotoxicity of 10% or more and less than 30%)	0 (herbicidal effect of not less than 0% and less than 10%, or phytotoxicity of 0% or more and less than 10%)
CNC(=O)C(Cn1cc(C)c(-c2ccc(SC(F)(F)F)cc2)n1)=NOC [Compound 70]	5 (herbicidal effect of not less than 90%, or phytotoxicity of 90% or more)	5 (herbicidal effect of not less than 90%, or phytotoxicity of 90% or more)	4 (herbicidal effect of not less than 70% and less than 90%, or phytotoxicity of 70% or more and less than 90%)	4 (herbicidal effect of not less than 70% and less than 90%, or phytotoxicity of 70% or more and less than 90%)	0 (herbicidal effect of not less than 0% and less than 10%, or phytotoxicity of 0% or more and less than 10%)	0 (herbicidal effect of not less than 0% and less than 10%, or phytotoxicity of 0% or more and less than 10%)	4 (herbicidal effect of not less than 70% and less than 90%, or phytotoxicity of 70% or more and less than 90%)	3 (herbicidal effect of not less than 50% and less than 70%, or phytotoxicity of 50% or more and less than 70%)	3 (herbicidal effect of not less than 50% and less than 70%, or phytotoxicity of 50% or more and less than 70%)	4 (herbicidal effect of not less than 70% and less than 90%, or phytotoxicity of 70% or more and less than 90%)	0 (herbicidal effect of not less than 0% and less than 10%, or phytotoxicity of 0% or more and less than 10%)	0 (herbicidal effect of not less than 0% and less than 10%, or phytotoxicity of 0% or more and less than 10%)
CNC(=O)C(Cn1cc(C)c(-c2ccc(F)c(Br)c2)n1)=NOC [Compound 83]	4 (herbicidal effect of not less than 70% and less than 90%, or phytotoxicity of 70% or more and less than 90%)	5 (herbicidal effect of not less than 90%, or phytotoxicity of 90% or more)	3 (herbicidal effect of not less than 50% and less than 70%, or phytotoxicity of 50% or more and less than 70%)	4 (herbicidal effect of not less than 70% and less than 90%, or phytotoxicity of 70% or more and less than 90%)	0 (herbicidal effect of not less than 0% and less than 10%, or phytotoxicity of 0% or more and less than 10%)	0 (herbicidal effect of not less than 0% and less than 10%, or phytotoxicity of 0% or more and less than 10%)	5 (herbicidal effect of not less than 90%, or phytotoxicity of 90% or more)	5 (herbicidal effect of not less than 90%, or phytotoxicity of 90% or more)	5 (herbicidal effect of not less than 90%, or phytotoxicity of 90% or more)	5 (herbicidal effect of not less than 90%, or phytotoxicity of 90% or more)	0 (herbicidal effect of not less than 0% and less than 10%, or phytotoxicity of 0% or more and less than 10%)	0 (herbicidal effect of not less than 0% and less than 10%, or phytotoxicity of 0% or more and less than 10%)
CON=C(Cn1cc(C)c(-c2ccccc2)n1)C(=O)NN(C)C [Compound 124]	4 (herbicidal effect of not less than 70% and less than 90%, or phytotoxicity of 70% or more and less than 90%)	3 (herbicidal effect of not less than 50% and less than 70%, or phytotoxicity of 50% or more and less than 70%)	3 (herbicidal effect of not less than 50% and less than 70%, or phytotoxicity of 50% or more and less than 70%)	4 (herbicidal effect of not less than 70% and less than 90%, or phytotoxicity of 70% or more and less than 90%)	0 (herbicidal effect of not less than 0% and less than 10%, or phytotoxicity of 0% or more and less than 10%)	0 (herbicidal effect of not less than 0% and less than 10%, or phytotoxicity of 0% or more and less than 10%)	5 (herbicidal effect of not less than 90%, or phytotoxicity of 90% or more)	3 (herbicidal effect of not less than 50% and less than 70%, or phytotoxicity of 50% or more and less than 70%)	3 (herbicidal effect of not less than 50% and less than 70%, or phytotoxicity of 50% or more and less than 70%)	4 (herbicidal effect of not less than 70% and less than 90%, or phytotoxicity of 70% or more and less than 90%)	0 (herbicidal effect of not less than 0% and less than 10%, or phytotoxicity of 0% or more and less than 10%)	0 (herbicidal effect of not less than 0% and less than 10%, or phytotoxicity of 0% or more and less than 10%)
